Among the targets are Carbonic anhydrase 4 (Homo sapiens, UniProt P22748); Carbonic anhydrase 6 (Homo sapiens, UniProt P23280); Carbonic anhydrase 1 (Homo sapiens, UniProt P00915); Carbonic anhydrase 14 (Homo sapiens, UniProt Q9ULX7); Carbonic anhydrase 13 (Mus musculus, UniProt Q9D6N1); Carbonic anhydrase 3 (Homo sapiens, UniProt P07451); Carbonic anhydrase 9 (Homo sapiens, UniProt Q16790); Carbonic anhydrase 12 (Homo sapiens, UniProt O43570).

Test [1] addresses Carbonic anhydrase 5A, mitochondrial (Homo sapiens, UniProt P35218).
The target of test [2] is Carbonic anhydrase 5B, mitochondrial (Homo sapiens, UniProt Q9Y2D0).
Sequence of Carbonic anhydrase 5B, mitochondrial (Q9Y2D0 whole entry): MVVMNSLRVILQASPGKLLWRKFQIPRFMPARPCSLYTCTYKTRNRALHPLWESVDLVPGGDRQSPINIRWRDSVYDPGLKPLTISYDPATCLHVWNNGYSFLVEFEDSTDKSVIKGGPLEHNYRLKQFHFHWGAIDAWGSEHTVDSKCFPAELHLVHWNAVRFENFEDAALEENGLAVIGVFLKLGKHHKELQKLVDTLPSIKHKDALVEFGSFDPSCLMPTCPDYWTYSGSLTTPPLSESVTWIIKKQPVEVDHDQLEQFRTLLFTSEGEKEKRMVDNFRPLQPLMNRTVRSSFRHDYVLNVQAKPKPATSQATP
Another test addresses Carbonic anhydrase 7 (Homo sapiens, UniProt P43166). In words: Inhibition of human cloned CA7 by stopped-flow CO2 hydration method.

Sequence of Carbonic anhydrase 4 (P22748 whole entry): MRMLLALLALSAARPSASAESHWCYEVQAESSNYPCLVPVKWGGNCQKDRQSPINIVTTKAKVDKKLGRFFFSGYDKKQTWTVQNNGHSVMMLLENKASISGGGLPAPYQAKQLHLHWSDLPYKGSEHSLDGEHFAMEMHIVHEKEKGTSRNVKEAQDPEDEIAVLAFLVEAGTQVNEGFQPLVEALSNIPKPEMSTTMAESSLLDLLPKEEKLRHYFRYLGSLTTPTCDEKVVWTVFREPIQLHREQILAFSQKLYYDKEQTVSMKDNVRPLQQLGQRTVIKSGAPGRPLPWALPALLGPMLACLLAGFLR
Sequence of Carbonic anhydrase 3 (P07451 whole entry): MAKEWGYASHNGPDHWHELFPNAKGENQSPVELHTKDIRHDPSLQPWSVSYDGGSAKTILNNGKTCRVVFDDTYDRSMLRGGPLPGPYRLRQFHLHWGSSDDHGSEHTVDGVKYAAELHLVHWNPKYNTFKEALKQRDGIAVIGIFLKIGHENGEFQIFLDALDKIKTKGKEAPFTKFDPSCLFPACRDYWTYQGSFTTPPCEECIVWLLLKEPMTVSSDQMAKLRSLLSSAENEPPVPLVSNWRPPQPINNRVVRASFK
Sequence of Carbonic anhydrase 13 (Q9D6N1 whole entry): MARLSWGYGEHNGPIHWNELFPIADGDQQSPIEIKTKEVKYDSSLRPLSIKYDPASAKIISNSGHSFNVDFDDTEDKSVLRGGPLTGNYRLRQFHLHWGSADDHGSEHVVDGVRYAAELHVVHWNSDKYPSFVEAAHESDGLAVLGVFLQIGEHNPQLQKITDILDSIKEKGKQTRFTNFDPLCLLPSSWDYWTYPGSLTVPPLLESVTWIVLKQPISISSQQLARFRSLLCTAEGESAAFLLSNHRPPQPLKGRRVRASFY
Sequence of Carbonic anhydrase 5A, mitochondrial (P35218 whole entry): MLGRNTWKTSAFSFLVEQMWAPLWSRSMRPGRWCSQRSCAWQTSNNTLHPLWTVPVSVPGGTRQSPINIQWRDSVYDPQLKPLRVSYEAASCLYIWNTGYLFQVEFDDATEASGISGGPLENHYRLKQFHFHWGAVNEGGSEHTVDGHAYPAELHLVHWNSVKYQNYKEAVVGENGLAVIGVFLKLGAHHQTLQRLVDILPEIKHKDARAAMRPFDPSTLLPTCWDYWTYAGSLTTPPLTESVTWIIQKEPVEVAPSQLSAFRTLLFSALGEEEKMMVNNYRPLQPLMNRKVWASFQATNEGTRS
Sequence of Carbonic anhydrase 12 (O43570 whole entry): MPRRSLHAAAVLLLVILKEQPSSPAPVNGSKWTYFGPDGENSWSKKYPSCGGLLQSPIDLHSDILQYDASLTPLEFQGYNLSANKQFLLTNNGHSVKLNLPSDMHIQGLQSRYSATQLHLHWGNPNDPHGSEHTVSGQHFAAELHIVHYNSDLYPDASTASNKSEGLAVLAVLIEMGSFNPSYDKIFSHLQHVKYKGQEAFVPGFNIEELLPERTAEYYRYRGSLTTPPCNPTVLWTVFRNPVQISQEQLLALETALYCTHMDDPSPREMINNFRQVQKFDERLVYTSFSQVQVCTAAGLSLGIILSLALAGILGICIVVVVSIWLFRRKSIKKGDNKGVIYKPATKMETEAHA
Sequence of Carbonic anhydrase 6 (P23280 whole entry): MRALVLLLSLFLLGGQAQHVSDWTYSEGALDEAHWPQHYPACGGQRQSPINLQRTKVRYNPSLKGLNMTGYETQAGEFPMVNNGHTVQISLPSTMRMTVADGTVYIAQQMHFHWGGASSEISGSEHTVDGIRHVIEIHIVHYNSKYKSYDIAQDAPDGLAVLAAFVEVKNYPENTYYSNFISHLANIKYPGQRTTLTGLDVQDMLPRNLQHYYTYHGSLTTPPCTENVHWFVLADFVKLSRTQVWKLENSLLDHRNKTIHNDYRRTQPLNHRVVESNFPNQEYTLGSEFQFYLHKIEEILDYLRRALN
Sequence of Carbonic anhydrase 14 (Q9ULX7 whole entry): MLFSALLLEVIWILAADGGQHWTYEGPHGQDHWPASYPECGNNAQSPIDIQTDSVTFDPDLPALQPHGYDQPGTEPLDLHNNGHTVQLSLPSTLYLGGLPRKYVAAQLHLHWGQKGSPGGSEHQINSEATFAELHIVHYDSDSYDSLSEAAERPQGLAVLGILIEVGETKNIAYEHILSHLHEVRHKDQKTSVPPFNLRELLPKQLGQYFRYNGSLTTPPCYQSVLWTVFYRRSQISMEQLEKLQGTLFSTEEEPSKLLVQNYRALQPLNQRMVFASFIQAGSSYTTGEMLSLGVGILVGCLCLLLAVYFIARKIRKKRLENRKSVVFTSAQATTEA
Sequence of Carbonic anhydrase 1 (P00915 whole entry): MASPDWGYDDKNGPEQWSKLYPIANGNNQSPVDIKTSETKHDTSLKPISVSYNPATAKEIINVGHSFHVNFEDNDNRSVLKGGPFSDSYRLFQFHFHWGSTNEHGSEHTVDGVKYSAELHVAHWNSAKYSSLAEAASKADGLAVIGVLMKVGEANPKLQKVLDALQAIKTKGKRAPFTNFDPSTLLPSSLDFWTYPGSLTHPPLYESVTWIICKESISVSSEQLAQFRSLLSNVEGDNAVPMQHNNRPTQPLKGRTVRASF
Sequence of Carbonic anhydrase 7 (P43166 whole entry): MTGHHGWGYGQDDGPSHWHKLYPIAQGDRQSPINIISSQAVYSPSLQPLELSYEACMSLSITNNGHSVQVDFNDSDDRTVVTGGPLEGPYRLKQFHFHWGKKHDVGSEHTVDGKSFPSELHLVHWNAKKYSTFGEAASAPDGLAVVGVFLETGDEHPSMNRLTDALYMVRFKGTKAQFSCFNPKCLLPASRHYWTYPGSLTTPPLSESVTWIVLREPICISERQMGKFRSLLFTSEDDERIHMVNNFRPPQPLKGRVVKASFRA
Description for Carbonic anhydrase 12: Inhibition of human cloned CA12 catalytic domain by stopped-flow CO2 hydration method
Description for Carbonic anhydrase 13: Inhibition of mouse CA13 by stopped-flow CO2 hydration method
Description for Carbonic anhydrase 3: Inhibition of human cloned CA3 by stopped-flow CO2 hydration method
Description for Carbonic anhydrase 6: Inhibition of human cloned CA6 by stopped-flow CO2 hydration method
Description for Carbonic anhydrase 9: Inhibition of human cloned CA9 catalytic domain by stopped-flow CO2 hydration method

Turning to `NS(=O)(=O)Oc1ccc2c(c1)S(=O)(=O)C(CC1CCCCCC1)=C2`, the Ki was found to be 842 nM on Carbonic anhydrase 4; 654 nM on Carbonic anhydrase 6; 682 nM in test [1]; 3600 nM on Carbonic anhydrase 1; 13 nM on Carbonic anhydrase 14; 66 nM on Carbonic anhydrase 13. Moreover, the Ki at Carbonic anhydrase 3 was 740000 nM; on Carbonic anhydrase 9, 18 nM; at Carbonic anhydrase 12, 13 nM; in test [2], 18 nM.

For the compound `NS(=O)(=O)Oc1ccc2c3c(c(=O)oc2c1)CCCCC3` [IROSUSTAT], the Ki was determined as 24 nM on Carbonic anhydrase 4; 653 nM on Carbonic anhydrase 6; 765 nM in test [1]; 3450 nM at Carbonic anhydrase 1; 755 nM at Carbonic anhydrase 14; 1050 nM on Carbonic anhydrase 13. Also, the Ki at Carbonic anhydrase 3 came to 700000 nM; on Carbonic anhydrase 7 it was 23 nM; on Carbonic anhydrase 9, 34 nM; on Carbonic anhydrase 12, 12 nM; in test [2] it was 720 nM.
